System: wheat cultivar 'Smiths Gold'
Test: Field trial: fenclorim seed treatment safening wheat against preemergence S-metolachlor (crop injury)
Format: in vivo
Experimental: Thus, in some embodiments, the methods of the present invention reduce herbicide-induced crop injury. The reduction in crop injury, due to a particular herbicide, provided by a particular safener can be determined by visually assessing crop injury in a plot of wheat treated with both the herbicide and the safener and comparing it to the crop injury observed in a control plot that was treated with the herbicide alone. Crop injury may be assessed by assigning the treated plot a rating on a scale of 0 to 100, wherein 0 indicates no crop injury and 100 indicates complete crop destruction. This score may be assigned, for example, by comparing the crop groundcover (i.e., green pixels) in the treated plot to that of the control plot using photographs.
Group 15 herbicides are promising candidates for controlling ryegrass in wheat. However, these herbicides are not currently registered for use in this crop. Thus, a field trial was conducted in Fayetteville, Ark. in fall of 2021 to test the ability of the safener fenclorim to protect wheat against the Group 15 herbicide S-metolachlor.
Seed from the conventional wheat cultivar ‘Smiths Gold’ was treated with various rates of the safener fenclorim (0, 0.5, and 2.0 g/kg seed). […] Crop injury and control of ryegrass were evaluated at two and three weeks after crop emergence. […]

Structure (SMILES): Clc1cc(Cl)nc(-c2ccccc2)n1 [fenclorim, 4,6-dichloro-2-phenyl-pyrimidine]
- safening against S-metolachlor (percentage of injury to wheat) (fenclorim seed treatment 0.5 and 2.0 g/kg seed, S-metolachlor 750 and 1120 g ai/ha preemergence, two and three weeks after crop emergence, field, Fayetteville, Ark.): significant safening was achieved
- safening shown in plot photos of wheat plants (fenclorim seed treatment 0.5 or 2.0 g/kg seed, S-metolachlor 750 g ai/ha preemergent, two weeks after crop emergence): safening provided

Reference: US20230240296A1, “SEED TREATMENT FOR SAFENING WHEAT TO CHLOROACETAMIDE HERBICIDES” (THE BOARD OF TRUSTEES OF THE UNIVERSITY OF ARKANSAS, priority 2022, published 2023)
